Test results published in US4175081A, “5-Substituted thiadiazole ureas” (priority 1977, dated 1979).

Experiments:
Crabgrass (CG) [1] = assay: Pre-emergence herbicide test; type: in vivo, Digitaria sanquinalis; settings: Digitaria sanguinalis, pre-emergence, 336 h, two weeks after treatment; for pest or weed control: 2 lb/acre; for pest or weed control at 4483.4 g/ha: 4 lb/acre
Outline: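 Crabgrass (Digitaria sanquinalis) was surface seeded in 3' plastic pots of potting soil, covered with screened soil, and watered by sub-irrigation in greenhouse trays. Pots were seeded one day before spraying in a hood with a moving belt and fixed nozzle. Plants stayed in the greenhouse on sub-irrigation, and pre-emergence control was rated visually two weeks after treatment.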

Johnson grass (JG) [2] = assay: Pre-emergence herbicide test; type: in vivo, Sorgum helepense; settings: Sorghum halepense, 336 h, two weeks after treatment; for pest or weed control at 2241.7 g/ha: 2 lb/acre; for pest or weed control at 4483.4 g/ha: 4 lb/acre
Outline: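 Pots seeded one day before spraying; compound applied pre-emergence at 8 lbs/acre (or 4 lbs/acre) in 38 gallons/acre spray volume. Sub-irrigated in greenhouse; injury/control rated visually two weeks after treatment.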

Barnyard grass (BG) [3] = assay: Pre-emergence herbicide test; type: in vivo; settings: Echinochloa crus-galli, 336 h, two weeks after treatment; for pest or weed control at 2241.7 g/ha: 2 lb/acre; for pest or weed control at 4483.4 g/ha: 4 lb/acre
Outline: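 Barnyard grass surface-seeded in potting soil and sprayed pre-emergence one day after seeding, at 8 or 4 lb compound/acre in 38 gal/acre spray volume. Pots kept in greenhouse with sub-irrigation only; injury or control rated visually two weeks after treatment.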

Amaranth pigweed (PW) [4] = assay: Pre-emergence herbicide test; type: in vivo, Amaranthus retroflexus; settings: 336 h, two weeks after treatment; for pest or weed control at 4483.4 g/ha: 4 lb/acre
Outline: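 Pigweed was surface-seeded in potted soil one day before spraying at 8 lbs compound per acre, or 4 lbs/acre, in 38 gallons per acre. Pots were kept in the greenhouse with sub-irrigation only; injury or control was rated visually two weeks after treatment.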

Turnip (TP) [5] = assay: Pre-emergence herbicide test; type: in vivo, Brassica sp.; settings: Brassica rapa, pre-emergence, 336 h, two weeks after treatment; for pest or weed control at 2241.7 g/ha: 2 lb/acre; for pest or weed control at 4483.4 g/ha: 4 lb/acre
Outline: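 Turnip (Brassica sp.) seeds were surface sown in 3' plastic pots of potting soil, covered with a thin layer of screened soil, and sub-irrigated in greenhouse trays. Pots were seeded one day ahead of treatment, sprayed pre-emergence under a hood with a fixed nozzle and moving belt, then kept in the greenhouse.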

Cotton (CT) [6] = assay: Pre-emergence herbicide test; type: in vivo, Gossypium hirsutum var. DPL smooth leaf; settings: Gossypium hirsutum, 336 h, two weeks after treatment; for pest or weed control at 2241.7 g/ha: 2 lb/acre; for pest or weed control at 4483.4 g/ha: 4 lb/acre
Outline: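 Crop and weed species seeded one day before treatment, then sprayed pre-emergence at 8 lbs actual compound per acre (also 4 lbs/acre formulations) in 38 gallons per acre. Pots kept in greenhouse with sub-irrigation only; injury or control visually rated two weeks after treatment.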

Corn (CN) [7] = assay: Pre-emergence herbicide test; type: in vivo; settings: Zea mays, 336 h, two weeks after treatment; for pest or weed control at 2241.7 g/ha: 2 lb/acre; for pest or weed control at 4483.4 g/ha: 4 lb/acre
Outline: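 Four corn seeds per pot, sown at seed-diameter depth one day before spraying, got soil surface treatment at 8 lbs/acre (4 lbs/acre formulations also prepared) in 38 gallons/acre. Pots were greenhouse-held with sub-irrigation only. Injury or control was scored visually two weeks after treatment.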

Bean (BN) [8] = assay: Pre-emergence herbicide test; type: in vivo, Phaseolus vulgaris var. Black Valentine; settings: Phaseolus vulgaris, 336 h, two weeks after treatment; for pest or weed control at 2241.7 g/ha: 2 lb/acre; for pest or weed control at 4483.4 g/ha: 4 lb/acre
Outline: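 Black Valentine bean was seeded in potting soil one day before spraying. Compound was applied pre-emergence at 8 lbs/acre (also 4 lbs/acre) in 38 gallons per acre. Plants were sub-irrigated and injury or control was rated visually after two weeks.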

Crabgrass (CG) [9] = assay: Post-emergence herbicide test; type: in vivo, Digitaria sanquinalis; settings: Digitaria sanguinalis, post-emergence, 336 h, two weeks after treatment; for pest or weed control: 2 lb/acre; for pest or weed control at 4483.4 g/ha: 4 lb/acre
Outline: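 Crabgrass (Digitaria sanquinalis) was surface seeded individually in 3' plastic pots of potting soil, covered with screened soil, and watered by sub-irrigation in greenhouse trays. Planting was staggered so seedlings reached the target stage together. Post-emergence sprays were applied in a hood with a removable belt and fixed nozzle, and control was visually rated two weeks after treatment.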

Johnson grass (JG) [10] = assay: Post-emergence herbicide test; type: in vivo, Sorgum helepense; settings: Sorghum halepense, 336 h, two weeks after treatment; for pest or weed control: 2 lb/acre; for pest or weed control at 4483.4 g/ha: 4 lb/acre
Outline: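 Greenhouse pot-grown seedlings sprayed post-emergence at 8 lbs compound per acre (some at 4 lbs/acre) in 38 gallons per acre spray volume. Sub-irrigated thereafter. Injury/control rated visually two weeks after treatment.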

Barnyard grass (BG) [11] = assay: Post-emergence herbicide test; type: in vivo; settings: Echinochloa crus-galli, 336 h, two weeks after treatment; for pest or weed control at 2241.7 g/ha: 2 lb/acre
Outline: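 Greenhouse pot-grown barnyard grass seedlings sprayed post-emergence at 8 lbs active compound per acre (some at 4 lbs/acre) in 38 gallons per acre, then sub-irrigated. Injury or control rated visually two weeks after treatment.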

Amaranth pigweed (PW) [12] = assay: Post-emergence herbicide test; type: in vivo, Amaranthus retroflexus; settings: 336 h, two weeks after treatment; for pest or weed control at 4483.4 g/ha: 4 lb/acre
Protocol: Amaranth pigweed (PW)--Amaranthus retroflexus
All crop and weed species were planted individually in 3' plastic pots containing potting soil. Four seeds each of corn, cotton, and snapbeans were seeded to a depth equal to the diameter of the seed. All other species were surface seeded and sprinkled with screened soil in an amount sufficient to cover the seed. Immediately after planting, all pots were watered by sub-irrigation in greenhouse trays. Pots for the pre-emergence phase were seeded one day before treatment.
Planting dates for the post-emergence phase were varied so that all seedlings would reach the desired stage of development simultaneously. The proper stage of seedling development for treatment in the post-emergence phase is as follows:
Pigweed and turnips: 1 or 2 true leaves above visible cotyledons.
Compounds were tested at rates of application equivalent to 8 lbs. of actual compound per acre in a spray volume of 38 gallons per acre. Spray hood constants required to deliver the above volume are as follows:
Formulations for spray applications were prepared in 50 ml volumes with the following three components:
Formulations for the 4 lbs/acre rate were prepared by adjusting the amount of active ingredient accordingly.
Spray applications were made in a hood containing a removable belt and fixed spray nozzle. For passage through the spray hood, one pot of each specie (pre-emergence phase) was placed on the rear half of the flat. Treatments were removed to the greenhouse after spraying. Watering during the observation period was done only by sub-irrigation.
Two weeks after treatment, pre- and post-emergence injury or control was visually rated, and the results were as shown in the following tables. Pre-emergence data are provided in TABLE III and post-emergence data are provided in TABLE IV, for compounds having the formula illustrated in TABLE I. Correspondingly, pre-emergence and post-emergence data, respectively, are set forth in TABLES V AND VI, for compounds having the formula illustrated in TABLE II.

Turnip (TP) [13] = assay: Post-emergence herbicide test; type: in vivo, Brassica sp.; settings: Brassica rapa, post-emergence, 336 h, two weeks after treatment; for pest or weed control at 2241.7 g/ha: 2 lb/acre; for pest or weed control at 4483.4 g/ha: 4 lb/acre
Outline: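 A greenhouse post-emergence herbicide test on turnip. Seeds were sown on the surface of potting soil in 3' plastic pots, lightly covered with screened soil and watered from below. Planting was timed so seedlings had 1 or 2 true leaves above the cotyledons at spraying, done in a hood with a fixed nozzle. Control or injury was scored by eye after two weeks.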

Cotton (CT) [14] = assay: Post-emergence herbicide test; type: in vivo, Gossypium hirsutum var. DPL smooth leaf; settings: Gossypium hirsutum, post-emergence, 336 h, two weeks after treatment; for pest or weed control at 2241.7 g/ha: 2 lb/acre; for pest or weed control at 4483.4 g/ha: 4 lb/acre
Outline: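 Cotton (Gossypium hirsutum var. DPL smooth leaf) was grown in 3' plastic pots of potting soil, four seeds per pot, planted at a depth equal to the seed diameter and watered by sub-irrigation. At the stage of expanded cotyledons with the first true leaf 1' long, plants were sprayed post-emergence in a hood with a fixed nozzle over a moving belt. Percent control was rated visually two weeks later.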

Corn (CN) [15] = assay: Post-emergence herbicide test; type: in vivo; settings: Zea mays, 336 h, two weeks after treatment; for pest or weed control: 2 lb/acre; for pest or weed control at 4483.4 g/ha: 4 lb/acre
Outline: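 Greenhouse seedlings grown in potting soil and sprayed post-emergence at 8 lbs compound/acre (formulations also made for 4 lbs/acre) in 38 gallons/acre spray volume. Watering by sub-irrigation only. Injury or control rated visually two weeks after treatment.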

Bean (BN) [16] = assay: Post-emergence herbicide test; type: in vivo, Phaseolus vulgaris var. Black Valentine; settings: Phaseolus vulgaris, post-emergence, 336 h, two weeks after treatment; for pest or weed control at 2241.7 g/ha: 2 lb/acre; for pest or weed control at 4483.4 g/ha: 4 lb/acre
Outline: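 Snapbean (Phaseolus vulgaris var. Black Valentine) was tested post-emergence. Four seeds were sown in 3' plastic pots of potting soil at a depth equal to the seed diameter, then sub-irrigated in greenhouse trays. Planting dates were staggered so plants were sprayed once primary leaves had expanded, with the growing point at the primary leaf nodes.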

Row | SMILES | pest or weed control (Crabgrass (CG) [1]) [%] | pest or weed control at 4483.4 g/ha (Crabgrass (CG) [1]) [%] | pest or weed control at 2241.7 g/ha (Johnson grass (JG) [2]) [%] | pest or weed control at 4483.4 g/ha (Johnson grass (JG) [2]) [%] | pest or weed control at 2241.7 g/ha (Barnyard grass (BG) [3]) [%] | pest or weed control at 4483.4 g/ha (Barnyard grass (BG) [3]) [%] | pest or weed control at 4483.4 g/ha (Amaranth pigweed (PW) [4]) [%] | pest or weed control at 2241.7 g/ha (Turnip (TP) [5]) [%] | pest or weed control at 4483.4 g/ha (Turnip (TP) [5]) [%] | pest or weed control at 2241.7 g/ha (Cotton (CT) [6]) [%] | pest or weed control at 4483.4 g/ha (Cotton (CT) [6]) [%] | pest or weed control at 4483.4 g/ha (Corn (CN) [7]) [%] | pest or weed control at 4483.4 g/ha (Bean (BN) [8]) [%] | pest or weed control at 4483.4 g/ha (Crabgrass (CG) [9]) [%] | pest or weed control at 4483.4 g/ha (Johnson grass (JG) [10]) [%] | pest or weed control at 4483.4 g/ha (Amaranth pigweed (PW) [12]) [%] | pest or weed control at 4483.4 g/ha (Turnip (TP) [13]) [%] | pest or weed control at 4483.4 g/ha (Cotton (CT) [14]) [%] | pest or weed control at 4483.4 g/ha (Corn (CN) [15]) [%] | pest or weed control at 4483.4 g/ha (Bean (BN) [16]) [%] | other results
1 | CCCSc1nnc(N(C)C(=O)N(C)C)s1 [Example 66] | 30 | 100 | 20 | 100 | 30 | 100 | 100 | 50 | 100 | 80 | 100 | 50 | 100 | 100 | 60 | 100 | 100 | 100 | 100 | 100 | pest or weed control at 2241.7 g/ha (Amaranth pigweed (PW) [4]; 2 lb/acre): 100%; pest or weed control at 2241.7 g/ha (Corn (CN) [7]): 0%; pest or weed control at 2241.7 g/ha (Bean (BN) [8]): 100%; pest or weed control (Crabgrass (CG) [9]): 50%; pest or weed control (Johnson grass (JG) [10]): 50%; pest or weed control at 2241.7 g/ha (Barnyard grass (BG) [11]): 60%; pest or weed control at 4483.4 g/ha (Barnyard grass (BG) [11]; 4 lb/acre): 70%; pest or weed control at 2241.7 g/ha (Amaranth pigweed (PW) [12]; 2 lb/acre): 100%; pest or weed control at 2241.7 g/ha (Turnip (TP) [13]): 100%; pest or weed control at 2241.7 g/ha (Cotton (CT) [14]): 100%; pest or weed control (Corn (CN) [15]): 30%; pest or weed control at 2241.7 g/ha (Bean (BN) [16]): 90%
2 | CNC(=O)Nc1nnc(C(F)F)s1 [Example 67] | 80 | 90 | 40 | 50 | 50 | – | 100 | 60 | 100 | 0 | 80 | 70 | 90 | 80 | 90 | 100 | 100 | 100 | 70 | 100 | pest or weed control at 2241.7 g/ha (Corn (CN) [7]): 0%; pest or weed control at 2241.7 g/ha (Bean (BN) [8]): 0%; pest or weed control (Crabgrass (CG) [9]): 80%; pest or weed control (Johnson grass (JG) [10]): 40%; pest or weed control at 2241.7 g/ha (Barnyard grass (BG) [11]): 80%; pest or weed control at 2241.7 g/ha (Turnip (TP) [13]): 100%; pest or weed control at 2241.7 g/ha (Cotton (CT) [14]): 100%; pest or weed control (Corn (CN) [15]): 40%; pest or weed control at 2241.7 g/ha (Bean (BN) [16]): 90%
3 | CCOC(=O)C(Sc1nnc(NC(=O)NC)s1)C(=O)OCC [Example 79] | – | 20 | – | 20 | – | – | 0 | – | 20 | – | 50 | 20 | 90 | 30 | 30 | 40 | 40 | 90 | 40 | 60 | –
4 | CNC(=O)Nc1nnc(SCC#N)s1 [Example 88] | – | 10 | – | 10 | – | 10 | 10 | – | 70 | – | 50 | 10 | 100 | 20 | 20 | 20 | 40 | 50 | 20 | 30 | –
